Experimental data as given in patent US20250250230A1, “HETEROCYCLIC COMPOUND” (TAKEDA PHARMACEUTICAL COMPANY LIMITED, priority 2022, published 2025).

molecular target: T1, human orexin type 2 receptor (Homo sapiens, UniProt O43614); assay: Measurement of orexin type 2 receptor agonist activity (calcium fluorescence, Fluo-4 AM, FDSS); assay type: cell-based; conditions: test compound 3 μM; CHO cells expressing human OX2 receptor; DMSO = 0%, orexin A (human) = 100%
T1 construct: expressed in transfected cells
T1 sequence (O43614 1-444): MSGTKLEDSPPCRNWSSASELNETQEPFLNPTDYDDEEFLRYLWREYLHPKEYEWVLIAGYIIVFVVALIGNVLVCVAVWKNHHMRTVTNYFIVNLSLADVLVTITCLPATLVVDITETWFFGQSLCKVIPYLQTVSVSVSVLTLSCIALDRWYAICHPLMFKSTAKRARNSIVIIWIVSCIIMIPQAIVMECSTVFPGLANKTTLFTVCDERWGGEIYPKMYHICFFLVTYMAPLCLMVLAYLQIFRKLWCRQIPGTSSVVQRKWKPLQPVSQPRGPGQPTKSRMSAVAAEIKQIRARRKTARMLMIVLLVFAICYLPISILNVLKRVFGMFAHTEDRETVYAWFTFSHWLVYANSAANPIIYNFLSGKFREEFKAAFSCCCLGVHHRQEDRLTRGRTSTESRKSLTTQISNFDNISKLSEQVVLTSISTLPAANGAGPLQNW
Outline: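 CHO-K1 cells stably expressing human OX2R were loaded with Fluo-4 AM (30 min 37 °C, 30 min RT) in HEPES-buffered HBSS with 0.1% BSA and probenecid. Calcium fluorescence was followed on FDSS for 2 min after compound addition; activity normalised to DMSO (0%) and 10 nM orexin A (100%).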

OX2R agonist activity (3 μM, %) [%]	SMILES
79	CS(=O)(=O)NC1CCCN(C(=O)C2CC2c2sccc2-c2ccccc2F)CC1 (racemic) [Example 220, a mixture of rac-N-[(4R)-1-{(1R,2R)-2-[3-(2-fluorophenyl)thiophen-2-yl]cyclopropane-1-carbonyl}azepan-4-yl]methanesulfonamide and rac-N-[(4S)-1-{(1R,2R)-2-[3-(2-fluorophenyl)thiophen-2-yl]cyclopropane-1-carbonyl}azepan-4-yl]methanesulfonamide]
107	CS(=O)(=O)NC1CCCN(C(=O)C2CC2c2sccc2-c2c(F)cccc2F)CC1 (racemic) [Example 221, a mixture of rac-N-[(4R)-1-{(1R,2R)-2-[3-(2,6-difluorophenyl)thiophen-2-yl]cyclopropane-1-carbonyl}azepan-4-yl]methanesulfonamide and rac-N-[(4S)-1-{(1R,2R)-2-[3-(2,6-difluorophenyl)thiophen-2-yl]cyclopropane-1-carbonyl}azepan-4-yl]methanesulfonamide]
81	CS(=O)(=O)NC1CCCN(C(=O)C2CC2c2sccc2-c2c(F)cccc2F)C1 (racemic) [Example 223, a mixture of rac-N-[(3R)-1-{(1R,2R)-2-[3-(2,6-difluorophenyl)thiophen-2-yl]cyclopropane-1-carbonyl}piperidin-3-yl]methanesulfonamide and rac-N-[(3S)-1-{(1R,2R)-2-[3-(2,6-difluorophenyl)thiophen-2-yl]cyclopropane-1-carbonyl}piperidin-3-yl]methanesulfonamide]
90	CS(=O)(=O)NC1CCN(C(=O)C2CC2c2ccc(C(F)F)cc2-c2c(F)cccc2F)C1 (racemic) [Example 228, a mixture of rac-N-[(3R)-1-{(1R,2R)-2-[5-(difluoromethyl)-2′,6′-difluoro[1,1′-biphenyl]-2-yl]cyclopropane-1-carbonyl}pyrrolidin-3-yl]methanesulfonamide and rac-N-[(3S)-1-{(1R,2R)-2-[5-(difluoromethyl)-2′,6′-difluoro[1,1′-biphenyl]-2-yl]cyclopropane-1-carbony}pyrrolidin-3-yl]methanesulfonamide]
64	CS(=O)(=O)NC1CCCN(C(=O)C2CC2c2ccc(C(F)F)cc2-c2c(F)cccc2F)CC1 (racemic) [Example 229, a mixture of rac-N-[(4R)-1-{(1R,2R)-2-[5-(difluoromethyl)-2′,6′-difluoro[1,1′-biphenyl]-2-yl]cyclopropane-1-carbonyl}azepan-4-yl]methanesulfonamide and rac-N-[(4S)-1-{(1R,2R)-2-[5-(difluoromethyl)-2′,6′-difluoro[1,1′-biphenyl]-2-yl]cyclopropane-1-carbonyl}azepan-4-yl]methanesulfonamide]
91	CS(=O)(=O)NC1CCCN(C(=O)C2CC2c2ccc(C(F)F)cc2-c2c(F)cccc2F)C1 (racemic) [Example 230, a mixture of rac-N-[(3R)-1-{(1R,2R)-2-[5-(difluoromethyl)-2′,6′-difluoro[1,1′-biphenyl]-2-yl]cyclopropane-1-carbonyl}piperidin-3-yl]methanesulfonamide and rac-N-[(3S)-1-{(1R,2R)-2-[5-(difluoromethyl)-2′,6′-difluoro[1,1′-biphenyl]-2-yl]cyclopropane-1-carbonyl}piperidin-3-yl]methanesulfonamide]
80	CS(=O)(=O)NC1CCCCN(C(=O)C2CC2c2sccc2-c2c(F)cccc2F)C1 (racemic) [Example 233, a mixture of rac-N-[(3R)-1-{(1R,2R)-2-[3-(2,6-difluorophenyl)thiophen-2-yl]cyclopropane-1-carbonyl}azepan-3-yl]methanesulfonamide and rac-N-[(3S)-1-{(1R,2R)-2-[3-(2,6-difluorophenyl)thiophen-2-yl]cyclopropane-1-carbonyl}azepan-3-yl]methanesulfonamide]
89	CS(=O)(=O)NC1CCN(C(=O)C2CC2c2sccc2-c2c(F)cccc2F)C1 (racemic) [Example 235, a mixture of rac-N-[(3R)-1-{(1R,2R)-2-[3-(2,6-difluorophenyl)thiophen-2-yl]cyclopropane-1-carbonyl}pyrrolidin-3-yl]methanesulfonamide and rac-N-[(3S)-1-{(1R,2R)-2-[3-(2,6-difluorophenyl)thiophen-2-yl]cyclopropane-1-carbonyl}pyrrolidin-3-yl]methanesulfonamide]
99	CCS(=O)(=O)NC12CC1CN(C(=O)C1CC1c1ccccc1-c1c(F)cccc1F)C2 (racemic) [Example 237, a mixture of rac-N-{(1S,5R)-3-[(1R,2R)-2-(2′,6′-difluoro[1,1′-biphenyl]-2-yl)cyclopropane-1-carbonyl]-3-azabicyclo[3.1.0]hexan-1-yl}ethanesulfonamide and rac-N-{(1R,5S)-3-[(1R,2R)-2-(2′,6′-difluoro[1,1′-biphenyl]-2-yl)cyclopropane-1-carbonyl]-3-azabicyclo[3.1.0]hexan-1-yl}ethanesulfonamide]
87	Cc1cc(-c2c(F)cccc2F)c(C2CC2C(=O)N2CCCC(NS(C)(=O)=O)CC2)cn1 (racemic) [Example 266, a mixture of rac-N-[(4R)-1-{(1R,2R)-2-[4-(2,6-difluorophenyl)-6-methylpyridin-3-yl]cyclopropane-1-carbonyl}azepan-4-yl]methanesulfonamide and rac-N-[(4S)-1-{(1R,2R)-2-[4-(2,6-difluorophenyl)-6-methylpyridin-3-yl]cyclopropane-1-carbonyl}azepan-4-yl]methanesulfonamide]
87	Cc1cc(-c2c(F)cccc2F)c(C2CC2C(=O)N2CCCC(NS(C)(=O)=O)C2)cn1 (racemic) [Example 267, a mixture of rac-N-[(3R)-1-{(1R,2R)-2-[4-(2,6-difluorophenyl)-6-methylpyridin-3-yl]cyclopropane-1-carbonyl}piperidin-3-yl]methanesulfonamide and rac-N-[(3S)-1-{(1R,2R)-2-[4-(2,6-difluorophenyl)-6-methylpyridin-3-yl]cyclopropane-1-carbonyl}piperidin-3-yl]methanesulfonamide]
80	Cc1cc(-c2c(F)cccc2F)c(C2CC2C(=O)N2CC[C@H](NS(C)(=O)=O)C2)cn1 (mixture of isomers) [Example 268, a mixture of rac-N-[(3R)-1-{(1R,2R)-2-[4-(2,6-difluorophenyl)-6-methylpyridin-3-yl]cyclopropane-1-carbonyl}pyrrolidin-3-yl]methanesulfonamide and rac-N-[(3S)-1-{(1R,2R)-2-[4-(2,6-difluorophenyl)-6-methylpyridin-3-yl]cyclopropane-1-carbonyl}pyrrolidin-3-yl]methanesulfonamide]
57	CS(=O)(=O)NCC1CN(C(=O)C2CC2c2ccccc2-c2c(F)cccc2F)CCC1(F)F (racemic) [Example 275, a mixture of rac-N-({(3R)-1-[(1R,2R)-2-(2′,6′-difluoro[1,1′-biphenyl]-2-yl)cyclopropane-1-carbonyl]-4,4-difluoropiperidin-3-yl}methyl)methanesulfonamide and rac-N-({(3S)-1-[(1R,2R)-2-(2′,6′-difluoro[1,1′-biphenyl]-2-yl)cyclopropane-1-carbonyl]-4,4-difluoropiperidin-3-yl}methyl)methanesulfonamide]
63	CS(=O)(=O)NCC1CN(C(=O)C2CC2c2ccccc2-c2c(F)cccc2F)CC1(F)F (racemic) [Example 285, a mixture of rac-N-({(3R)-1-[(1R,2R)-2-(2′,6′-difluoro[1,1′-biphenyl]-2-yl)cyclopropane-1-carbonyl]-4,4-difluoropyrrolidin-3-yl}methyl)methanesulfonamide and rac-N-({(3S)-1-[(1R,2R)-2-(2′,6′-difluoro[1,1′-biphenyl]-2-yl)cyclopropane-1-carbonyl]-4,4-difluoropyrrolidin-3-yl}methyl)methanesulfonamide]
88	CS(=O)(=O)N[C@H]1CCN(C(=O)C2(C#N)CC2c2ccccc2-c2c(F)cccc2F)C1 (mixture of isomers) [Example 316, a mixture of rac-N-{(3S)-1-[(1R,2S)-1-cyano-2-(2′,6′-difluoro[1,1′-biphenyl]-2-yl)cyclopropane-1-carbonyl]pyrrolidin-3-yl}methanesulfonamide and N-{(3S)-1-[(1S,2R)-1-cyano-2-(2′,6′-difluoro[1,1′-biphenyl]-2-yl)cyclopropane-1-carbonyl]pyrrolidin-3-yl}methanesulfonamide]
95	CS(=O)(=O)NC1CCN(C(=O)C2CC2c2cscc2-c2c(F)cccc2F)C1 (racemic) [Example 321, a mixture of rac-N-[(3R)-1-{(1R,2R)-2-[4-(2,6-difluorophenyl)thiophen-3-yl]cyclopropane-1-carbonyl}pyrrolidin-3-yl]methanesulfonamide and rac-N-[(3R)-1-{(1R,2R)-2-[4-(2,6-difluorophenyl)thiophen-3-yl]cyclopropane-1-carbonyl}pyrrolidin-3-yl]methanesulfonamide]
